5 compounds from PubChem BioAssay AID258 (DTP/NCI, 2004) can be followed below.

Several values for one entry are separate records, joined by “and”; a condition that tells them apart may be missing. Equal values may be shown once. Inconclusive results and toxic doses are left out.

The experiment concerns CD2F1 mice, L1210 leukemia sc, survival T/C. The experiment is described as follows: NCI In Vivo Anticancer Drug Screen. Data for tumor model L1210 Leukemia (subcutaneous) in CD2F1 (CDF1) mice. The settings on record: endpoint: median survival time, higher = longer survival. Put shortly:
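Transplantable tumor-bearing mice were treated with compound; survival or tumor size measured and expressed as treated-group value (T) divided by vehicle-treated control value (C).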

In the case of `CN1CCN(c2ccc3nc(-c4ccc5nc(-c6ccc(O)cc6)[nH]c5c4)[nH]c3c2)CC1`, the T/C (dose: 4.7 mg/kg/injection, schedule: Q03HX024 (ip), vehicle: saline) is 102 % of control; the T/C (dose: 9.4 mg/kg/injection, schedule: Q03HX024 (ip), vehicle: saline) was 107 % of control; the T/C (dose: 14.0 mg/kg/injection, schedule: Q03HX008 (ip), vehicle: saline) is 102 % of control; the T/C (dose: 18.75 mg/kg/injection, schedule: Q03HX024 (ip), vehicle: saline) is 110 % of control; the T/C (dose: 28.0 mg/kg/injection, schedule: Q03HX008 (ip), vehicle: saline) was 113 % of control; the T/C (dose: 37.5 mg/kg/injection, schedule: Q03HX024 (ip), vehicle: saline) is 119 % of control. In addition, the T/C (dose: 37.5 mg/kg/injection, schedule: Q04DX003 (ip), vehicle: saline) was 101 % of control; the T/C (dose: 75.0 mg/kg/injection, schedule: Q04DX003 (ip), vehicle: saline) was 107 % of control; the T/C (dose: 112.0 mg/kg/injection, schedule: Q01DX001 (ip), vehicle: suspension in saline) is 104 % of control; the T/C (dose: 150.0 mg/kg/injection, schedule: Q04DX003 (ip), vehicle: saline) is 110 % of control.
Regarding `Nc1nc([Se]c2nc(N)nc3c2ncn3C2OC(CO)C(O)C2O)c2ncn(C3OC(CO)C(O)C3O)c2n1` (stereo unspecified), the T/C (dose: 12.5 mg/kg/injection, schedule: Q01DX005 (ip), vehicle: distilled water + Tween-80) is 106 % of control; the T/C (dose: 25.0 mg/kg/injection, schedule: Q01DX005 (ip), vehicle: distilled water + Tween-80) was 115 % of control; the T/C (dose: 36.0 mg/kg/injection, schedule: Q01DX009 (ip), vehicle: distilled water + Tween-80) was 151 % of control; the T/C (dose: 50.0 mg/kg/injection, schedule: Q01DX005 (ip), vehicle: distilled water + Tween-80) was 122 % of control; the T/C (dose: 60.0 mg/kg/injection, schedule: Q01DX009 (ip), vehicle: distilled water + Tween-80) was 151 % of control and 168 % of control; the T/C (dose: 100.0 mg/kg/injection, schedule: Q01DX009 (ip), vehicle: distilled water + Tween-80) was 156 % of control and 164 % of control. Moreover, where the note is “dose: 167.0 mg/kg/injection, schedule: Q01DX009 (ip), vehicle: distilled water + Tween-80”, the T/C is 255 % of control and 297 % of control.
In the case of `CC1CN=C(c2ccc(NC(=O)c3ccc(C(=O)Nc4ccc(C5=NCC(C)N5)cc4)cc3)cc2)N1` (stereo unspecified), the T/C (dose: 1.8 mg/kg/injection, schedule: Q01DX Z (sc), vehicle: water) was 115 % of control; the T/C (dose: 3.0 mg/kg/injection, schedule: Q01DX Z (sc), vehicle: water) is 155 % of control; the T/C (dose: 5.0 mg/kg/injection, schedule: Q01DX Z (sc), vehicle: water) was 240 % of control; the T/C (dose: 8.4 mg/kg/injection, schedule: Q01DX Z (sc), vehicle: water) is 255 % of control; the T/C (dose: 14.0 mg/kg/injection, schedule: Q01DX Z (sc), vehicle: water) was 230 % of control.
Consider `ONc1ncnc2nc[nH]c12`, for which the T/C was 112 % of control (dose: 50.0 mg/kg/injection, schedule: Q01DX Z (sc), vehicle: steriod suspending solution); 118 % of control (dose: 100.0 mg/kg/injection, schedule: Q01DX Z (sc), vehicle: steriod suspending solution); 168 % of control (dose: 400.0 mg/kg/injection, schedule: Q01DX Z (sc), vehicle: steriod suspending solution).
In the case of `CC[n+]1c(-c2ccccc2)c2cc(N)ccc2c2ccc(N)cc21`, the T/C by setting is: (dose: 5.0 mg/kg/injection, schedule: Q01DX Z (sc), vehicle: carboxymethylcellulose (CMC)) 100 % of control; (dose: 8.4 mg/kg/injection, schedule: Q01DX Z (sc), vehicle: carboxymethylcellulose (CMC)) 94 % of control; (dose: 14.0 mg/kg/injection, schedule: Q01DX Z (sc), vehicle: carboxymethylcellulose (CMC)) 100 % of control; (dose: 23.0 mg/kg/injection, schedule: Q01DX Z (sc), vehicle: carboxymethylcellulose (CMC)) 100 % of control; (dose: 39.0 mg/kg/injection, schedule: Q01DX Z (sc), vehicle: carboxymethylcellulose (CMC)) 105 % of control; (dose: 64.0 mg/kg/injection, schedule: Q01DX Z (sc), vehicle: carboxymethylcellulose (CMC)) 111 % of control.
